Results reported in PubChem BioAssay (NCI).
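Dose response: 5 concentrations. Exposure: 48 h. Format: 96-well plates. Endpoint: linear interpolation; highest concentration if not reached. GI50: concentration for 50% inhibition of growth. The concentration for full growth arrest is given as TGI.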

Columns and labels:
Test in all cases: growth of human tumour cells (NCI), 48 h
A498 renal = tested on: A498 renal
DU-145 prostate = tested on: DU-145 prostate
HCT-116 colon = tested on: HCT-116 colon
HOP-62 NSCLC = tested on: HOP-62 NSCLC
HOP-92 NSCLC = tested on: HOP-92 NSCLC
IGROV1 ovarian = tested on: IGROV1 ovarian
MALME-3M melanoma = tested on: MALME-3M melanoma
SF-268 CNS = tested on: SF-268 CNS
SK-OV-3 ovarian = tested on: SK-OV-3 ovarian
UACC-257 melanoma = tested on: UACC-257 melanoma

Compound | TGI (A498 renal) | TGI (DU-145 prostate) | TGI (HCT-116 colon) | TGI (HOP-62 NSCLC) | TGI (HOP-92 NSCLC) | TGI (IGROV1 ovarian) | TGI (MALME-3M melanoma) | TGI (SF-268 CNS) | TGI (SK-OV-3 ovarian) | TGI (UACC-257 melanoma) | GI50 (A498 renal) | GI50 (DU-145 prostate) | GI50 (HOP-62 NSCLC) | GI50 (IGROV1 ovarian) | GI50 (MALME-3M melanoma) | GI50 (SK-OV-3 ovarian) | GI50 (UACC-257 melanoma)
CCOC(=O)c1cccc(NC(=O)CCl)c1 | 29.2 µM | 22.7 µM | 8.29 µM | 6.15 µM | 16.9 µM | 8.11 µM | 18.5 µM | 5.69 µM | 15.3 µM | 14.1 µM | – | – | – | – | – | – | –
O=C(c1ccccc1)c1ccc2c(c1)nc1n2C(c2c(Cl)cccc2Cl)SC1 (stereo not drawn) | > 100 µM | > 100 µM | > 100 µM | > 100 µM | > 100 µM | > 100 µM | > 100 µM | > 100 µM | > 100 µM | > 100 µM | – | – | – | – | – | – | –
COC(=O)c1c2c(cc3c1CC1(Cc4ccccc4C1=O)C3)CCC2 (stereo not drawn) | > 100 µM | > 100 µM | > 100 µM | > 100 µM | > 100 µM | > 100 µM | 79.9 µM | > 100 µM | > 100 µM | > 100 µM | – | – | – | – | – | – | –
Cc1nc2c(=S)[nH]ncc2[nH]1 | > 100 µM | – | > 100 µM | > 100 µM | > 100 µM | > 100 µM | > 100 µM | – | > 100 µM | > 100 µM | – | – | – | – | – | – | –
COc1cc(/C=C/C(=O)OCC23CC[C@@]4(C(=O)O)CCC(C)[C@H](C)C4C2=CCC2[C@@]4(C)CC[C@H](O)C(C)(C)C4CC[C@]23C)ccc1O (stereo partly drawn) | 68.5 µM | 23.2 µM | 46.4 µM | 28.6 µM | – | 57.2 µM | 27.5 µM | 33.3 µM | 83.4 µM | 39.4 µM | – | – | – | – | – | – | –
Cc1ccc(C)n1-c1ccccc1C1SCCCS1 | > 100 µM | > 100 µM | > 100 µM | > 100 µM | > 100 µM | > 100 µM | > 100 µM | > 100 µM | > 100 µM | > 100 µM | – | – | – | – | – | – | –
C1=C\SS/C=C\SS/C=C\SS/C=C\SS/1 | > 100 µM | > 100 µM | > 100 µM | > 100 µM | > 100 µM | > 100 µM | > 100 µM | > 100 µM | > 100 µM | > 100 µM | – | – | – | – | – | – | –
COC(=O)[C@H](Cc1ccccc1)NC(=O)c1ccc(CNC(=O)/C=C/c2ccc(-c3ccccc3)cc2)cc1 | > 100 µM | > 100 µM | > 100 µM | 45.4 µM | > 100 µM | > 100 µM | > 100 µM | > 100 µM | > 100 µM | > 100 µM | – | – | – | – | – | – | –
O=C(Cn1c(=O)oc2ccc(C(=O)c3ccc(F)cc3)cc21)c1ccc([N+](=O)[O-])cc1 | > 100 µM | > 100 µM | > 100 µM | > 100 µM | > 100 µM | 78.3 µM | > 100 µM | > 100 µM | > 100 µM | > 100 µM | – | – | – | – | – | – | –
CC[n+]1cnc(N)c2c(-c3ccc(Cl)cc3)cn(-c3ccc(C)cc3)c21 | 24 µM | 31.8 µM | 21.3 µM | 30.5 µM | 24.7 µM | 26.5 µM | 25.5 µM | 26.7 µM | 29 µM | 6.06 µM | – | – | – | – | – | – | –
COC(=O)N1CC2(CO)C3CC=C(C(=O)Nc4ccccc4Br)C2C1C3Br (stereo not drawn) | > 50 µM | > 50 µM | – | > 50 µM | > 50 µM | > 50 µM | > 50 µM | > 50 µM | > 50 µM | > 50 µM | – | – | – | – | – | – | –
CC1=NN(c2nc(N)nc(-c3ccccc3S(N)(=O)=O)n2)C(C)(C)C1 | 64.5 µM | > 100 µM | > 100 µM | > 100 µM | > 100 µM | > 100 µM | – | > 100 µM | > 100 µM | > 100 µM | – | – | – | – | – | – | –
Nc1nc(Cl)cc(NCC2(O)CC(CO)C2)n1 (stereo not drawn) | > 100 µM | > 100 µM | > 100 µM | > 100 µM | > 100 µM | > 100 µM | > 100 µM | > 100 µM | > 100 µM | > 100 µM | – | – | – | – | – | – | –
CC(C)(C)OC(=O)CN1CCNCCNCC1 | > 100 µM | > 100 µM | > 100 µM | > 100 µM | > 100 µM | > 100 µM | > 100 µM | > 100 µM | > 100 µM | > 100 µM | – | – | – | – | – | – | –
O=C1c2ccccc2C(=O)N1n1c(Cc2ccccc2)n[nH]c1=O | > 100 µM | > 100 µM | > 100 µM | > 100 µM | > 100 µM | > 100 µM | > 100 µM | – | – | > 100 µM | – | – | – | – | – | – | –
O=C(O)c1ccccc1.[Ag] | 36.8 µM | 32.1 µM | 46.3 µM | 46.3 µM | 41.3 µM | 30.6 µM | 3.25 µM | 50.1 µM | 31.2 µM | 10.2 µM | – | – | – | – | – | – | –
C1CC2=C(C1)[Se]C(=C1Sc3nsnc3S1)[Se]2 | – | > 100 µM | > 100 µM | > 100 µM | > 100 µM | > 100 µM | > 100 µM | > 100 µM | > 100 µM | > 100 µM | – | – | – | – | – | – | –
C=CCNC(=S)Nc1sc2c(c1C(=O)OCC)CC(C)CC2 (stereo not drawn) | – | > 100 µM | 66.3 µM | 65.1 µM | > 100 µM | > 100 µM | 45.8 µM | > 100 µM | 69.4 µM | 43.5 µM | – | – | – | – | – | – | –
Cc1c2cc[nH]c(C(F)(F)F)c2cc2c1nc1ccccc12 | > 113 µM | – | > 125 µM | > 125 µM | > 125 µM | > 125 µM | > 125 µM | > 125 µM | > 125 µM | > 125 µM | – | – | – | – | – | – | –
C=C(C)[C@@]1(O)O[C@H]2C[C@@]3(C)OC(=CC3=O)/C(C)=C\[C@@H]3OC(=O)[C@@]1(C)[C@H]32 | – | > 100 µM | 20.6 µM | > 100 µM | 41.3 µM | 24.9 µM | > 100 µM | 88.2 µM | > 100 µM | > 63.5 µM | – | – | – | – | – | – | –
COc1cc2c(cc1OCCCN1CCN(CCCOc3cc4c(cc3OC)C(=O)N3CCC[C@H]3C=N4)CC1)C=CC(C)(C)O2 | 2.37 µM | 2.1 µM | – | 2.5 µM | – | > 100 µM | 3.65 µM | – | 2.99 µM | 3.52 µM | 1150 nM | 889 nM | 1250 nM | 606 nM | 1900 nM | 1610 nM | 1820 nM
